Experimental data as given in patent publication US20260262643A1, “HERBICIDAL BENZOXAZINES” (FMC CORPORATION, priority 2022, published 2026).

Legend:
blackgrass [1] = assay: Test A preemergence; format: in vivo, Alopecurus myosuroides
How it was run: (§1)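 Loam/sand soil; pre-em directed soil spray at planting, post-em spray at 1–2 leaf (2–10 cm). Compound in non-phytotoxic solvent + surfactant. Greenhouse 10 d; visual injury vs untreated, 0 = no effect, 100 = complete control.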

corn [2] = assay: Test A preemergence; format: in vivo, Zea mays
How it was run: as §1

foxtail, giant [3] = assay: Test A preemergence; format: in vivo, Setaria faberi
How it was run: as §1

goosegrass [4] = assay: Test A preemergence; format: in vivo, Eleusine indica
How it was run: as §1

kochia [5] = assay: Test A preemergence; format: in vivo, Bassia scoparia
How it was run: as §1

oat, wild [6] = assay: Test A preemergence; format: in vivo, Avena fatua
How it was run: as §1

pigweed, palmer [7] = assay: Test A preemergence; format: in vivo, Amaranthus palmeri
How it was run: as §1

ragweed [8] = assay: Test A preemergence; format: in vivo, Ambrosia artemisiifolia
How it was run: as §1

ryegrass, Italian [9] = assay: Test A preemergence; format: in vivo, Lolium multiflorum
How it was run: as §1

soybean [10] = assay: Test A preemergence; format: in vivo, Glycine max
How it was run: as §1

wheat [11] = assay: Test A preemergence; format: in vivo, Triticum aestivum
How it was run: as §1

blackgrass [12] = assay: Test A postemergence; format: in vivo, Alopecurus myosuroides
How it was run: as §1

corn [13] = assay: Test A postemergence; format: in vivo, Zea mays; settings: postemergence, 10 days; for Plant response rating, Corn: visual injury, 0 to 100 scale (0 no effect, 100 complete control)
How it was run: as §1

foxtail, giant [14] = assay: Test A postemergence; format: in vivo, Setaria faberi; settings: postemergence, 10 days; for Plant response rating, Foxtail, Giant: visual injury, 0 to 100 scale (0 no effect, 100 complete control)
How it was run: as §1

goosegrass [15] = assay: Test A postemergence; format: in vivo, Eleusine indica; settings: postemergence, 10 days; for Plant response rating, Goosegrass: visual injury, 0 to 100 scale (0 no effect, 100 complete control)
How it was run: as §1

kochia [16] = assay: Test A postemergence; format: in vivo, Bassia scoparia; settings: postemergence, 10 days; for Plant response rating, Kochia: visual injury, 0 to 100 scale (0 no effect, 100 complete control)
How it was run: as §1

oat, wild [17] = assay: Test A postemergence; format: in vivo, Avena fatua; settings: postemergence, 10 days; for Plant response rating, Oat, Wild: 500 g ai/ha, visual injury, 0 to 100 scale (0 no effect, 100 complete control)
How it was run: as §1

pigweed, palmer [18] = assay: Test A postemergence; format: in vivo, Amaranthus palmeri; settings: postemergence, 10 days; for Plant response rating, Pigweed, Palmer: 500 g ai/ha, visual injury, 0 to 100 scale (0 no effect, 100 complete control)
How it was run: as §1

ragweed [19] = assay: Test A postemergence; format: in vivo, Ambrosia artemisiifolia; settings: postemergence, 10 days; for Plant response rating, Ragweed: 500 g ai/ha, visual injury, 0 to 100 scale (0 no effect, 100 complete control)
How it was run: as §1

ryegrass, Italian [20] = assay: Test A postemergence; format: in vivo, Lolium multiflorum; settings: postemergence, 10 days; for Plant response rating, Ryegrass, Italian: 500 g ai/ha, visual injury, 0 to 100 scale (0 no effect, 100 complete control)
How it was run: as §1

soybean [21] = assay: Test A postemergence; format: in vivo, Glycine max; settings: postemergence, 10 days; for Plant response rating, Soybean: 500 g ai/ha, visual injury, 0 to 100 scale (0 no effect, 100 complete control)
How it was run: as §1

wheat [22] = assay: Test A postemergence; format: in vivo, Triticum aestivum; settings: postemergence, 10 days; for Plant response rating, Wheat: 500 g ai/ha, visual injury, 0 to 100 scale (0 no effect, 100 complete control)
How it was run: as §1

galium = assay: Test A postemergence; format: in vivo, Galium aparine; settings: postemergence, 10 days; for Plant response rating, Galium: visual injury, 0 to 100 scale (0 no effect, 100 complete control)
How it was run: as §1

horseweed = assay: Test A postemergence; format: in vivo, Erigeron canadensis; settings: postemergence, 10 days; for Plant response rating, Horseweed: visual injury, 0 to 100 scale (0 no effect, 100 complete control)
How it was run: as §1

barnyardgrass = assay: Test B flooded paddy test; format: in vivo, Echinochloa crus-galli; settings: 250 g ai/ha, Flood, 13 days, 0 to 100 scale (0 no effect, 100 complete control)
How it was run: (§2)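 Visual scores from 0 (no effect) to 100 (complete kill) were assigned 13 days after treatment by comparison with controls. Seedlings had been treated at two leaves by adding compound to floodwater standing 3 cm deep, kept at that level in the greenhouse.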

ducksalad = assay: Test B flooded paddy test; format: in vivo, Heteranthera limosa; settings: 250 g ai/ha, Flood, 13 days, 0 to 100 scale (0 no effect, 100 complete control)
How it was run: as §2

rice = assay: Test B flooded paddy test; format: in vivo, Oryza sativa; settings: 250 g ai/ha, Flood, 13 days, 0 to 100 scale (0 no effect, 100 complete control)
How it was run: as §2

sedge, umbrella = assay: Test B flooded paddy test; format: in vivo, Cyperus difformis; settings: 250 g ai/ha, Flood, 13 days, 0 to 100 scale (0 no effect, 100 complete control)
How it was run: as §2

[23] = 125 g ai/ha, visual injury after 10 days, 0 to 100 scale, 0 is no effect, 100 is complete control
[24] = 500 g ai/ha, 0 to 100 scale (0 no effect, 100 complete control), 10 days
[25] = 125 g ai/ha, 0 to 100 scale, 0 no effect, 100 complete control

SMILES: Cc1cccc2c1O[C@@H](C)CN2C(=O)c1cccc(-n2cnc(Cl)n2)c1 [Compound 69]
- Plant response rating, Blackgrass (blackgrass [1]; [23]): 40
- Plant response rating, Blackgrass (blackgrass [1]; [24]): 90
- Plant response rating, Corn (corn [2]; [23]): 30
- Plant response rating, Corn (corn [2]; [24]): 30
- Plant response rating, Foxtail, Giant (foxtail, giant [3]; [23]): 90
- Plant response rating, Foxtail, Giant (foxtail, giant [3]; [24]): 90
- Plant response rating, Goosegrass (goosegrass [4]; [23]): 90
- Plant response rating, Goosegrass (goosegrass [4]; [24]): 100
- Plant response rating, Kochia (kochia [5]; [23]): 60
- Plant response rating, Kochia (kochia [5]; [24]): 70
- Plant response rating, Oat, Wild (oat, wild [6]; [23]): 20
- Plant response rating, Oat, Wild (oat, wild [6]; [24]): 70
- Plant response rating, Pigweed, Palmer (pigweed, palmer [7]; [23]): 20
- Plant response rating, Pigweed, Palmer (pigweed, palmer [7]; [24]): 90
- Plant response rating, Ragweed (ragweed [8]; [23]): 0
- Plant response rating, Ragweed (ragweed [8]; [24]): 0
- Plant response rating, Ryegrass, Italian (ryegrass, Italian [9]; [23]): 80
- Plant response rating, Ryegrass, Italian (ryegrass, Italian [9]; [24]): 80
- Plant response rating, Soybean (soybean [10]; [23]): 0
- Plant response rating, Soybean (soybean [10]; [24]): 0
- Plant response rating, Wheat (wheat [11]; [23]): 10
- Plant response rating, Wheat (wheat [11]; [24]): 20
- Plant response rating, Blackgrass (blackgrass [12]; 125 g ai/ha, postemergence, 10 days, visual injury, 0 to 100 scale (0 no effect, 100 complete control)): 0
- Plant response rating, Blackgrass (blackgrass [12]; 500 g ai/ha, Postemergence, 0 to 100 scale): 60
- Plant response rating, Corn (corn [13]; 125 g ai/ha): 10
- Plant response rating, Corn (corn [13]; 500 g ai/ha): 30
- Plant response rating, Foxtail, Giant (foxtail, giant [14]; 125 g ai/ha): 20
- Plant response rating, Foxtail, Giant (foxtail, giant [14]; 500 g ai/ha): 80
- Plant response rating, Goosegrass (goosegrass [15]; 125 g ai/ha): 0
- Plant response rating, Goosegrass (goosegrass [15]; 500 g ai/ha): 20
- Plant response rating, Kochia (kochia [16]; 125 g ai/ha): 20
- Plant response rating, Kochia (kochia [16]; 500 g ai/ha): 60
- Plant response rating, Oat, Wild (oat, wild [17]): 30
- Plant response rating, Pigweed, Palmer (pigweed, palmer [18]): 40
- Plant response rating, Ragweed (ragweed [19]): 30
- Plant response rating, Ryegrass, Italian (ryegrass, Italian [20]): 70
- Plant response rating, Soybean (soybean [21]): 100
- Plant response rating, Wheat (wheat [22]): 10
- Plant response rating, Galium (galium; 125 g ai/ha): 60
- Plant response rating, Galium (galium; 500 g ai/ha): 100
- Plant response rating, Horseweed (horseweed; 125 g ai/ha): 0
- Plant response rating, Horseweed (horseweed; 500 g ai/ha): 0
- Plant response rating, Barnyardgrass (barnyardgrass): 0
- Plant response rating, Ducksalad (ducksalad): 0
- Plant response rating, Rice (rice): 0
- Plant response rating, Sedge, Umbrella (sedge, umbrella): 0

SMILES: C#CCOc1ccc(-n2cnc(C(C)C)n2)cc1C(=O)N1C[C@H](C)Oc2c(Cl)cccc21 [Compound 107]
- Plant response rating, Blackgrass (blackgrass [1]; [23]): 20
- Plant response rating, Blackgrass (blackgrass [1]; [24]): 40
- Plant response rating, Corn (corn [2]; [23]): 10
- Plant response rating, Corn (corn [2]; [24]): 50
- Plant response rating, Foxtail, Giant (foxtail, giant [3]; [23]): 100
- Plant response rating, Foxtail, Giant (foxtail, giant [3]; [24]): 100
- Plant response rating, Goosegrass (goosegrass [4]; [23]): 100
- Plant response rating, Goosegrass (goosegrass [4]; [24]): 100
- Plant response rating, Kochia (kochia [5]; [23]): 20
- Plant response rating, Kochia (kochia [5]; [24]): 80
- Plant response rating, Oat, Wild (oat, wild [6]; [23]): 60
- Plant response rating, Oat, Wild (oat, wild [6]; [24]): 70
- Plant response rating, Pigweed, Palmer (pigweed, palmer [7]; [23]): 100
- Plant response rating, Pigweed, Palmer (pigweed, palmer [7]; [24]): 100
- Plant response rating, Ragweed (ragweed [8]; [23]): 30
- Plant response rating, Ryegrass, Italian (ryegrass, Italian [9]; [23]): 80
- Plant response rating, Ryegrass, Italian (ryegrass, Italian [9]; [24]): 100
- Plant response rating, Soybean (soybean [10]; [23]): 50
- Plant response rating, Soybean (soybean [10]; [24]): 70
- Plant response rating, Wheat (wheat [11]; [23]): 0
- Plant response rating, Wheat (wheat [11]; [24]): 40
- Blackgrass plant response rating (blackgrass [12]; 125 g ai/ha, postemergence, 10 days, 0 to 100 scale, 0 no effect, 100 complete control): 60
- Plant response rating, Blackgrass (blackgrass [12]; 500 g ai/ha, postemergence, 10 days, visual injury, 0 to 100 scale (0 no effect, 100 complete control)): 80
- Corn plant response rating (corn [13]; [25]): 70
- Plant response rating, Corn (corn [13]; 500 g ai/ha): 80
- Foxtail, Giant plant response rating (foxtail, giant [14]; [25]): 90
- Plant response rating, Foxtail, Giant (foxtail, giant [14]; 500 g ai/ha): 100
- Goosegrass plant response rating (goosegrass [15]; [25]): 70
- Plant response rating, Goosegrass (goosegrass [15]; 500 g ai/ha): 100
- Kochia plant response rating (kochia [16]; [25]): 80
- Plant response rating, Kochia (kochia [16]; 500 g ai/ha): 90
- Oat, Wild plant response rating (oat, wild [17]; [25]): 30
- Plant response rating, Oat, Wild (oat, wild [17]): 70
- Pigweed, Palmer plant response rating (pigweed, palmer [18]; [25]): 90
- Plant response rating, Pigweed, Palmer (pigweed, palmer [18]): 100
- Ragweed plant response rating (ragweed [19]; [25]): 50
- Plant response rating, Ragweed (ragweed [19]): 70
- Ryegrass, Italian plant response rating (ryegrass, Italian [20]; [25]): 20
- Plant response rating, Ryegrass, Italian (ryegrass, Italian [20]): 60
- Soybean plant response rating (soybean [21]; [25]): 100
- Plant response rating, Soybean (soybean [21]): 100
- Wheat plant response rating (wheat [22]; [25]): 30
- Plant response rating, Wheat (wheat [22]): 30
- Galium plant response rating (galium; [25]): 100
- Plant response rating, Galium (galium; 500 g ai/ha): 100
- Horseweed plant response rating (horseweed; [25]): 20
- Plant response rating, Horseweed (horseweed; 500 g ai/ha): 30
- Plant response rating, Barnyardgrass (barnyardgrass): 70
- Plant response rating, Ducksalad (ducksalad): 25
- Plant response rating, Rice (rice): 20
- Plant response rating, Sedge, Umbrella (sedge, umbrella): 90
